Test results reported in ChEMBL document CHEMBL4325876, “Novel 3-(2,6,9-trisubstituted-9H-purine)-8-chalcone derivatives as potent anti-gastric cancer agents: Design, synthesis and structural optimization” (Eur J Med Chem, 2019).
Active and inactive are the calls of the source. No cut-off for these calls is given here.

Columns and labels:
MGC-803 [1] = assay: Cytotoxicity against human MGC803 cells assessed as inhibition of cell proliferation after 72 hrs by MTT assay; type: functional, cell-based; details: MGC-803, 72 h
A549 = assay: Cytotoxicity against human A549 cells assessed as inhibition of cell proliferation after 72 hrs by MTT assay; type: functional, cell-based; details: A549, 72 h
TE-1 = assay: Cytotoxicity against human TE1 cells assessed as inhibition of cell proliferation after 72 hrs by MTT assay; type: functional, cell-based; details: TE-1, 72 h
THP-1 = assay: Cytotoxicity against human THP1 cells assessed as inhibition of cell proliferation after 72 hrs by MTT assay; type: functional, cell-based; details: THP-1, 72 h
MGC-803 [2] = assay: Induction of apoptosis in human MGC803 cells assessed as chromatin shrinkage at 0.25 to 1 uM after 72 hrs by Hoechst 33258 staining based fluorescence microscopic method; type: functional, cell-based
MGC-803 [3] = assay: Induction of apoptosis in human MGC803 cells assessed as apoptotic cells at 1 uM after 72 hrs by Annexin V-FITC/propidium iodide staining based flow cytometry (reference value: 0.6%); type: functional
MGC-803 [4] = assay: Induction of apoptosis in human MGC803 cells assessed as increase in cleaved caspase-9 level after 72 hrs by Western blot analysis; type: functional, cell-based
GES1 = assay: Cytotoxicity against human GES-1 cells assessed as inhibition of cell proliferation after 72 hrs by MTT assay; type: cell-based; details: GES1, 72 h
MGC-803 [5] = assay: Induction of apoptosis in human MGC803 cells assessed as increase in cleaved caspase-8 level after 72 hrs by Western blot analysis; type: functional, cell-based
MGC-803 [6] = assay: Antimigratory activity in human MGC803 cells at 0.25 to 1 uM after 72 hrs by wound healing assay; type: functional, cell-based
MGC-803 [7] = assay: Induction of apoptosis in human MGC803 cells assessed as decrease in Bcl2 expression at 0.25 to 1 uM after 72 hrs by Western blot analysis; type: functional, cell-based
MGC-803 [8] = assay: Inhibition of colony formation in human MGC803 cells after 7 days by crystal violet staining based assay; type: functional, cell-based
MGC-803 [9] = assay: Induction of apoptosis in human MGC803 cells assessed as increase in cleaved caspase-3 level after 72 hrs by Western blot analysis; type: functional, cell-based
MGC-803 [10] = assay: Antimigratory activity in human MGC803 cells at 0.25 to 1 uM after 72 hrs by Hoechst 33258 staining based transwell assay; type: functional, cell-based
MGC-803 [11] = assay: Antiinvasive activity in human MGC803 cells after 72 hrs by Hoechst 33258 staining based matrigel coated transwell assay; type: functional, cell-based
[12] = Selectivity index, ratio of IC50 for human GES-1 cells to IC50 for human MGC803 cells; type: toxicity; details: GES-1 cells versus MGC803 cells, read-out: Ratio IC50
MGC-803 [13] = assay: Induction of apoptosis in human MGC803 cells assessed as increase in Bax expression at 0.25 to 1 uM after 72 hrs by Western blot analysis; type: functional, cell-based
MGC-803 [14] = assay: Induction of apoptosis in human MGC803 cells assessed as cell rounding at 0.25 to 1 uM after 72 hrs by Hoechst 33258 staining based fluorescence microscopic method; type: functional
MGC-803 [15] = assay: Induction of apoptosis in human MGC803 cells assessed as increase in cleaved PARP level after 72 hrs by Western blot analysis; type: functional, cell-based
MGC-803 [16] = assay: Induction of apoptosis in human MGC803 cells assessed as formation of apoptotic bodies at 0.25 to 1 uM after 72 hrs by Hoechst 33258 staining based fluorescence microscopic method; type: functional, cell-based
MGC-803 [17] = assay: Induction of apoptosis in human MGC803 cells after 72 hrs by Annexin V-FITC/propidium iodide staining based flow cytometry; type: functional, cell-based

Compound	IC50 (MGC-803 [1]) [µM]	IC50 (A549) [µM]	IC50 (TE-1) [µM]	IC50 (THP-1) [µM]	further results
CCCSc1nc(N2CCOCC2)c2nc(/C=C/C(=O)c3ccc(C)cc3)n(Cc3ccccc3)c2n1	1.55	4.9	3.63	2.76	–
CCCSc1nc(N2CCOCC2)c2nc(-c3ccccc3)n(Cc3ccccc3)c2n1	> 32	> 32	–	–	–
CCCSc1nc(N2CCOCC2)c2nc(/C=C/c3ccccc3)n(Cc3ccccc3)c2n1	30.5	> 32	–	–	–
CCCSc1nc(N2CCOCC2)c2nc(/C=C/C(=O)c3cccc(OC)n3)n(Cc3ccccc3)c2n1	8.62	> 32	10.7	9.73	–
CCCSc1nc(N2CCOCC2)c2nc(/C=C/C(=O)c3ccc(OC)c(OC)c3)n(Cc3ccccc3)c2n1	4.91	9.74	8.56	> 32	–
CCCSc1nc(N2CCOCC2)c2nc(/C=C/C(=O)c3cc(OC)c(OC)c(OC)c3)n(Cc3ccccc3)c2n1	6.52	> 32	9.93	> 32	–
CCCSc1nc(N2CCOCC2)c2nc(/C=C/C(=O)c3ccc(C)cc3)n(CCCc3ccccc3)c2n1	0.84	2.11	8.52	26.2	Activity (MGC-803 [2]): Active; Activity (MGC-803 [3]): 86.3%; Activity (MGC-803 [4]): Dose-dependent effect; IC50 (GES1): 23.4 µM; Activity (MGC-803 [5]): Dose-dependent effect; Activity (MGC-803 [6]): Active; Activity (MGC-803 [7]): Active; inhibition (MGC-803 [8]): Dose-dependent effect; Activity (MGC-803 [9]): Dose-dependent effect; Activity (MGC-803 [10]): Active; Activity (MGC-803 [11]): Dose-dependent effect; selectivity ratio [12]: 27.8; Activity (MGC-803 [13]): Active; Activity (MGC-803 [14]): Active; Activity (MGC-803 [15]): Dose-dependent effect; Activity (MGC-803 [16]): Active; Activity (MGC-803 [17]): Dose-dependent effect
CCCSc1nc(N2CCOCC2)c2nc(/C=C/C(=O)c3ccc(C)cc3)n(CC3CCCCC3)c2n1	4.02	10.5	8.43	3.83	–
CCCSc1nc(N2CCOCC2)c2nc(/C=C/C(=O)c3ccccc3)n(Cc3ccccc3)c2n1	4.74	14.9	7.38	1.41	IC50 (GES1): 35.6 µM; selectivity ratio [12]: 7.5
CCCSc1nc(N2CCCCC2)c2nc(/C=C/C(=O)c3ccc(C)cc3)n(Cc3ccccc3)c2n1	15.7	> 32	> 32	> 32	–
CCCSc1nc(NCc2ccccc2)c2nc(/C=C/C(=O)c3ccc(C)cc3)n(Cc3ccccc3)c2n1	12.4	30.1	> 32	> 32	–
CCCSc1nc(N2CCOCC2)c2nc(/C=C/C(=O)c3ccc(Cl)cc3)n(Cc3ccccc3)c2n1	8.32	17.1	19.1	3.71	–
CCCSc1nc(N2CCOCC2)c2nc(/C=C/C(=O)c3ccc(OC)cc3)n(Cc3ccccc3)c2n1	3.1	7.63	5.87	2.52	–
CCCSc1nc(N2CCOCC2)c2nc(/C=C/C(=O)c3ccc(-c4ccccc4)cc3)n(Cc3ccccc3)c2n1	> 32	> 32	> 32	> 32	–
CCCSc1nc(N2CCOCC2)c2nc(/C=C/C(=O)c3ccc4ccccc4c3)n(Cc3ccccc3)c2n1	7.75	28.1	23.8	> 32	–
CCCSc1nc(N2CCOCC2)c2nc(/C=C/C(=O)c3ccc(Br)cc3)n(Cc3ccccc3)c2n1	3.41	10.7	13.3	11.4	–
CCCSc1nc(N2CCOCC2)c2nc(/C=C/C(=O)c3ccccc3Cl)n(Cc3ccccc3)c2n1	2.41	9.19	4.87	9.73	–
CCCSc1nc(N2CCOCC2)c2nc(CCc3ccccc3)n(Cc3ccccc3)c2n1	> 32	> 32	–	–	–
CCCSc1nc(Cl)c2c(n1)N(Cc1ccccc1)C(C(=O)NCCCc1ccccc1)N2 (stereo not drawn)	–	–	–	–	IC50 (GES1): 24.9 µM; inhibition (MGC-803 [8]): Active; selectivity ratio [12]: 1.5
